Data on three molecules can be found in article PMC12281485, “High-Throughput Screening of Potent Drug-like Molecules Targeting 17β-HSD10 for the Treatment of Alzheimer’s Disease and Cancer” (ACS Chemical Biology, 2025).

In general, viability refers to a per cent measure of how many cells are alive, often set against a control.

The structures appear in SMILES notation. Read-outs that look alike come from different tables or passages of the source. Marks after values point to notes of the source that are not given here.

The target in series [1] is T1, 17β-HSD10 (Homo sapiens, UniProt Q99714).
T1 construct: Recombinant 17β-HSD10 was expressed and purified as previously described in Aitken et al; made in house
T1 sequence (Q99714 1-261): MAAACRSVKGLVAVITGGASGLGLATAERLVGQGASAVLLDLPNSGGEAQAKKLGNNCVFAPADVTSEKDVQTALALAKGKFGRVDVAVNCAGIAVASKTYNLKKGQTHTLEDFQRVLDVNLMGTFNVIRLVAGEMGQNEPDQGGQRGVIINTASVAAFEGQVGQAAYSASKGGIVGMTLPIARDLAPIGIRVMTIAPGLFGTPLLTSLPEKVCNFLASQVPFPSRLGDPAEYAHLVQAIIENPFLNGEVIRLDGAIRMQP
The arrangement: method as in Kissinger et al. Particulars: Table 5, ref Kissinger et al.; cited from earlier work.

A short description of series [2]: Mouse hepatocyte metabolic stability. It is filed as in vitro ADME. The note with it: mouse hepatocytes; for Heps category: metabolism category; for Cl (clearance): limits of quantitation 0.5 and 50; for half-life: read-out: T1/2 (half-life). Set-up: k (elimination constant): unit not given here. The procedure: (§1) Hepatocyte isolation, hepatocyte incubations for metabolic stability, plasma protein binding (PPB) experiments, and LC/MS sample analysis were carried out as previously described in Brandon et al. and MacLeod et al.
XLfit (IDBS, UK) was used to calculate the exponential decay and the rate constant (k) from the ratio of the peak area of the test compound to the internal standard at each time point. […] Verapamil, 7-ethoxycoumarin, 7-hydroxycoumarin, and phthalazine were used as positive controls to confirm acceptable assay performance. […] Values were transferred to RStudio v1.3.1093 (Posit, Boston, MA, USA) for generation of scatter plots and heatmaps using the ggplot2 package (Wickham 2016).

In series [3] the test system is HEK293 cells overexpressing 17β-HSD10. Briefly: LDH cytotoxicity assay. The series is classed as cell-based, human. Particulars: 50 μM compound, 24 h, n = 3 ± SD. The procedure:
Cell cytotoxicity was assessed via the measurement of LDH leakage into the culture medium using a commercially available kit from Pierce (Thermo Scientific cat no. 88953). This was carried out in accordance with the kit guidelines, with the activity of LDH being calculated from the change in absorbance at […]. Human embryonic kidney (HEK293) cells overexpressing 17β-HSD10 were cultured in phenol-red free media (10% FBS, 1 mM sodium pyruvate, 100 units penicillin, 0.1 mg mL^–1 streptomycin, and 2 mM L-glutamine) and seeded at a density of 10,000 cells per well (100 μL, 96-well plates). […] Treated cells were then incubated at 37 °C and CO2 (5%) for 24 h before the LDH assay was performed as per the manufacturer’s instructions. Spontaneous control (water) and maximum control (lysis buffer) were used in accordance with the kit guide. Absorbance was measured at 490 and 680 nm using the SpectraMaxM2e spectrophotometer. The measured LDH activity was used to calculate %cytotoxicity using the following equation (eq ): %cytotoxicity=(compoundtreatedLDHactivity−spontaneousLDHactivity)/(maximumLDHactivity−spontaneousLDHactivity)×100 1

Series [4] in a line: Alamar Blue cell viability assay. The series is classed as cell-based, human. Particulars: human, HEK293 cells overexpressing 17β-HSD10, 50 μM compound, n = 3 ± SD, read-out: Alamar Blue % viability (50 μM dose). How it is done:
Cell viability was assessed via fluorescence change using the commercially available Alamar Blue from ThermoFisher. HEK293 cells overexpressing 17β-HSD10 were cultured in phenol-red free media (10% FBS, 1 mM sodium pyruvate, 100 units penicillin, 0.1 mg mL^–1 streptomycin, and 2 mM L-glutamine) and seeded at a density of 10,000 cells per well (100 μL, 96-well plates). […] Treated cells were then incubated at 37 °C and CO2 (5%) for 24 h before the assay was performed as per the manufacturer’s instructions. Fluorescence was measured at 530 nm excitation and 590 nm emission using the SpectraMaxM2e spectrophotometer.
On the technique in general: The colour change of resazurin is a common sign of viable cells or microbes.

For series [5], the target named is T1, 17β-HSD10. Briefly: (−)-CHANA fluorescence assay of cellular 17β-HSD10 activity. It is filed as cell-based. The note with it: read-out: cellular 17β-HSD10 activity mean pEC50 (converted). How it is done:
(−)–CHANA ((−)-cyclohexenyl amino naphthalene alcohol) is a fluorogenic probe that can be used to detect 17β-HSD10 activity in living cells. HEK293 17β-HSD10 cells were seeded at a density of 10,000 cells per well (100 μL, 96-well black plates) in phenol-red free media (10% FBS, 1 mM sodium pyruvate, 100 units penicillin, 0.1 mg mL^–1 streptomycin, and 2 mM L-glutamine). […] The fluorogenic probe (−)–CHANA was then added to each well to give a final assay concentration of 20 μM. Fluorescence was immediately measured using the FLUOstar Optima microplate reader (excitation = 380 nm, emission = 520 nm, orbital averaging = 3 mm), and the initial reaction was monitored for 3–4 h. EC50 was calculated from the control-subtracted triplicates using nonlinear regression (four parameters) of GraphPad Prism 5 software. The Final EC50 and SEM values were obtained as a mean of at least three independent measurements.

The target in series [6] is T1, 17β-HSD10. Description: 17β-HSD10 enzyme inhibition dose-response assay (acetoacetyl-CoA/NADH, absorbance 340 nm). It is filed as biochemical. How it is done: Recombinant 17β-HSD10 was expressed and purified as previously described in Aitken et al.
17β-HSD10 screening was carried out as described in Aitken et al. with the exception that experiments were also conducted in clear-bottom 1536-well low-volume microplates (Corning) with a final assay volume of 20 μL. For primary screening, an endpoint assay format was adopted, in which an Echo acoustic liquid dispenser (Labcyte) was used to transfer 20 nL of either DMSO control […] or test compounds (10 μM) to the assay plate. 10 μL of the 17β-HSD10 enzyme in an assay buffer (2.5 nM) was then added to the plates using the Preddator liquid handling robot (Redd and Whyte), and plates were incubated at RT for 15 min. 10 μL of the substrate mixture (100 μM acetoacetyl-CoA and 100 μM NADH) was added with the Preddator. To start the reaction, the plates were left to incubate for 35 min at RT before the absorbance at 340 nm was read on the EnVision plate reader (PerkinElmer). For the kinetic assay format and dose-response follow-up experiments, the same protocol was adopted, except that the absorbance at 340 nm was monitored constantly for 45 min from immediately after the reaction was started.

A short description of series [7]: Mouse plasma protein binding. The series is classed as in vitro ADME. The note with it: read-out: mouse PPB (% free). The procedure: as §1
Setting [8] is: Table 4, 17β-HSD10 overexpressing HEK293 cells, CHANA fluorescence assay.
Setting [9] is: Table 5, HEK293 17β-HSD10 cells, CHANA assay.

`O=C(C(c1ccccc1)n1cnc2[nH]ncc2c1=S)N1CCCCCC1` (centres unmarked) [AG18051, reference compound]: on 17β-HSD10 [1], the “mean 17β-HSD10 pIC50” value is 7.04 ^b. For the same molecule, in series [2], the “T1/2 (half-life)” value turned out to be 6.6 min, the “k (elimination constant)” value is listed as 0.11, the Heps category entry is listed as “High” and the “Cl (clearance)” value was greater than 50 mL/min/g liver.
`Cc1ccc(C(=O)N(CC(C)C)c2cccc(N(C)Cc3c[nH]cn3)c2)c(F)c1` [ESC1002575]: the “LDH % toxicity (50 μM dose)” value in series [3] is on record as 4.78 ± 0.02%. Also, the viability at 24 h, 50 μM in series [4] is 92.57 ± 0.47%. At 17β-HSD10 [5] (setting [8]), the EC50 was 367 nM. Also, the EC50 at 17β-HSD10 [5] (setting [9]) is 367 nM. The IC50 on 17β-HSD10 [6] (Table 2, chemically modified cluster hit compounds, read-out: 17β-HSD10 pIC50 (converted)) was 269 nM. The IC50 on 17β-HSD10 [6] (Table 5, read-out: mean 17β-HSD10 pIC50 (converted)) was 269 nM. Moreover, the fraction unbound in series [7] stood at 0.076. In addition, in series [2], the “k (elimination constant)” value turned out to be 0.012, the Heps category entry is on record as “mod”, the “Cl (clearance)” value was 5.8 mL/min/g liver and the half-life amounted to 57.2 min.
Turning to `O=C(c1sccc1Cl)N1CCC[C@H]1c1ccccc1-c1cc(O)ccc1F` [ESC1002842], the “LDH % toxicity (50 μM dose)” value in series [3] is listed as 5.90 ± 0.004%. Also, the viability at 24 h, 50 μM in series [4] came to 82.44 ± 0.32%. Moreover, the EC50 at 17β-HSD10 [5] (setting [8]) is 40 nM. The EC50 on 17β-HSD10 [5] (setting [9]) was 40 nM. The IC50 on 17β-HSD10 [6] (Table 3, chemically modified singleton hit compound series, read-out: 17β-HSD10 pIC50 (converted)) was 40.7 nM. Further, the fraction unbound in series [7] was determined as 0.034. Further, in series [2], the “k (elimination constant)” value worked out at 0.17, the Heps category entry is given as “high”, the “Cl (clearance)” value is recorded as greater than 50 mL/min/g liver and the half-life came to 4 min.
